Data published in patent US20240034987A1, “SUPPLEMENTED SERUM-FREE MEDIA FOR CULTURED MEAT PRODUCTION” (Trustees of Tufts College, priority 2020, published 2024).
Entries after “also recorded” stand apart in the source; their conditions may differ.

System: bovine satellite cells (BSCs)
Experiment: Short-term growth analysis (3 and 4 days, dsDNA quantitation, brightfield imaging)
Assay type: cell-based
Conditions: for BSC proliferation compared to B8 media alone: supplement in B8, range of concentrations, growth over four days; for FGF-2 concentration to which medium could be lowered without significantly affecting growth: vs 40 ng/mL control
Procedure: Homemade B8 medium was prepared using store-bought components and a previously described formulation and method of preparation. See, Kuo, H. H. et al. Negligible-Cost and Weekend-Free Chemically Defined Human iPSC Culture. Stem Cell Reports 14, 256-270. Table 1 includes the formulation. Additionally, HiDef-B8 medium aliquots were generously provided by Defined Bioscience (Defined Bioscience #LSS-201, San Diego, CA, USA) and added DMEM/F12 with 1% antibiotic/antimycotic. Short term BSC growth (3 and 4 days) was analyzed for mixtures of serum-containing and serum-free media, as well as for pure B8 media with reduced growth factor concentrations and/or with the addition of various media supplements (Table 2). Briefly, BSCs were thawed (passage number <2) and plated in BSC-GM on 96-well tissue-culture plastic plates for each timepoint at a density of 2,500 cells/cm^2 with 0.25 ug/cm^2 iMatrix recombinant laminin-511. After 24 hours, BSC-GM was removed, cells were washed 1× with DPBS, and new media (e.g., B8+/−supplementation) was added. A list of supplements and concentrations can be found in Table 2. Media was changed on day 3, and on days 3 and 4 cells were imaged, media was aspirated from appropriate plates, and plates were frozen at −80° C. Once all timepoints were frozen, cell number was analyzed using a FluoReporter dsDNA quantitation kit (ThermoFisher #F2962) according to the recommended protocol and with fluorescence readings performed on a Synergy H1 microplate reader (BioTek Instruments, Winooski, VT, USA) using excitation and emission filters centered at 360 and 490 nm, respectively. Cell number at 3 and 4 days was analyzed relative to pure B8 or HiDef media.

Compound	BSC proliferation compared to B8 media alone	further results
hepatocyte growth factor: hepatocyte growth factor, media supplement tested in B8	inconsequential	
FGF-2: fibroblast growth factor, component of B8 and Beefy-9, baseline 40 ng/mL		effect of complete removal of FGF-2 on cell growth and morphology (0 ng/mL FGF-2 in the media): significantly affects cell morphology; also recorded: significantly affected; effect of FGF-2 reduction on cell morphology (Beefy-9 with 5 ng/mL FGF-2, three days): did not affect morphology; FGF-2 concentration to which medium could be lowered without significantly affecting growth (in B8, four days): 5 ng/mL; FGF-2 concentration to which medium could be lowered without significantly affecting growth (in Beefy-9, four days): 1.25 ng/mL
CCCCCCCC/C=C\CCCCCCCC(=O)O [oleic acid, reference compound]	significantly improved	growth vs B8 control on day 4 (tested alone in B8, day 4): no significant difference
NCCO [ethanolamine, reference compound]	inconsequential	
IL-6: interleukin-6, media supplement (BioRad PBP021)	significantly improved	
COc1cc(/C=C/C(=O)CC(=O)/C=C/c2ccc(O)c(OC)c2)ccc1O [curcumin, reference compound]	significantly improved	
CCCCC/C=C\C/C=C\CCCCCCCC(=O)O [linoleic acid, reference compound]	significantly improved	
